Target: SARM1 (ARM-SAM-TIR) (Homo sapiens (Human), UniProt Q6SZW1)
Test: ARM-SAM-TIR SARM1 IC50 assay (NADase activity, NAD+ cleavage, RapidFire MS)
Format: biochemical
Settings: ARM-SAM-TIR lysate 5 μg/mL, 2 h pre-incubation, 5 μM NAD+, 2 hr room temperature
Experimental: This Example describes an assay of ARM-SAM-TIR NADase activity and use of this assay to measure the efficacy of compounds of Formula I or Formula I′ to block SARM1 mediated NAD+ cleavage. This assay was optimized in such a way as to characterize the efficacy of the compounds in Formula I or Formula I′ to inhibit SARM1 activity and to calculate an IC50 value for each compound. This assay makes use of full length SARM1, which encompasses the ARM, SAM and TIR domains.
NRK1-HEK293T cells were seeded onto 150 cm^2 plates at 20×10^6 cells per plate. The next day, the cells were transfected with 15 μg ARM-SAM-TIR expression plasmid, SEQ ID NO: 1.
The cultures were supplemented with 1 mM NR at time of transfection to minimize toxicity from ARM-SAM-TIR overexpression. Forty-eight hours after transfection, cells were harvested, pelleted by centrifugation at 1,000 rpm (Sorvall ST 16R centrifuge, Thermo Fisher), and washed once with cold PBS (0.01 M phosphate buffered saline NaCl 0.138 M; KCl 0.0027 M; pH 7.4). The cells were resuspended in PBS with protease inhibitors (cOmplete™ protease inhibitor cocktail, Roche product #11873580001) and cell lysates were prepared by sonication (Branson Sonifer 450, output=3, 20 episodes of stroke). The lysates were centrifuged (12,000×g for 10 min at 4° C.) to remove cell debris and the supernatants (containing ARM-SAM-TIR protein) were stored at −80° C. for later use in the in vitro ARM-SAM-TIR NADase assay (see below). Protein concentration was determined by the Bicinchoninic (BCA) method and used to normalize lysate concentrations.
The enzymatic assay was performed in a 384-well polypropylene plate in Dulbecco's PBS buffer in a final assay volume of 20 μL. ARM-SAM-TIR lysate with a final concentration of 5 μg/mL was pre-incubated with the respective compound at 1% DMSO final assay concentration over 2 h at room temperature. The reaction was initiated by addition of 5 μM final assay concentration of NAD+ as substrate. After a 2 hr room temperature incubation, the reaction was terminated with 40 μL of stop solution of 7.5% trichloroactetic acid in acetonitrile. The NAD+ and ADPR concentrations were analyzed by a RapidFire High Throughput Mass Spectrometry System (Agilent Technologies, Santa Clara, Calif.) using an API4000 triple quadrupole mass spectrometer (AB Sciex Framingham, Mass.).

SARM1 (ARM-SAM-TIR), sequence (Q6SZW1 other isoform, or with tags, fused parts or gaps): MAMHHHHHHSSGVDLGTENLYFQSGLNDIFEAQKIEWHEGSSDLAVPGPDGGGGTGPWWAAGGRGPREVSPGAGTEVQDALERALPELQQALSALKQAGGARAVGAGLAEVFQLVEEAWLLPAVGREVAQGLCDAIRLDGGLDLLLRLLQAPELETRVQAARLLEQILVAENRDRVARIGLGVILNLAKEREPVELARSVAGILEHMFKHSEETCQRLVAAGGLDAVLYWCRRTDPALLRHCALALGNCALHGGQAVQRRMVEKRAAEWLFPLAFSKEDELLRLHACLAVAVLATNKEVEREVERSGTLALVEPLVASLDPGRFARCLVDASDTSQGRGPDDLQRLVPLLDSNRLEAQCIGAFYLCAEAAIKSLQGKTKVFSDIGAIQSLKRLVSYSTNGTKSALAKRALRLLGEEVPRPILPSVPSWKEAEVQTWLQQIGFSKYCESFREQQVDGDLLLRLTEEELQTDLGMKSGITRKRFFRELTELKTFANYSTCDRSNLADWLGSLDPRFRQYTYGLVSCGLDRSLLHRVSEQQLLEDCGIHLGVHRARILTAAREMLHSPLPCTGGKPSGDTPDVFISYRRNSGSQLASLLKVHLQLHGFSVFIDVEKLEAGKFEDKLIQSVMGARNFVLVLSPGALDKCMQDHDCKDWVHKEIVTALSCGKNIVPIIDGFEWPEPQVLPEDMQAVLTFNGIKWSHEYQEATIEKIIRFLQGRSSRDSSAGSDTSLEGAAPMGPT

| Compound | IC50 |
| --- | --- |
| Cc1c(-c2ccncc2)n[nH]c1NC(=O)CCc1cccc(Cl)c1 [Example 248] | < 5 µM |
| O=C(CCc1cnc(C(F)(F)F)nc1)Nc1nnc(-c2ccncc2)[nH]1 [Example 87] | < 5 µM |
| N#Cc1ccc(CC(=O)Nc2nnc(-c3ccncc3)[nH]2)cc1 [Example 79] | 5 to 15 µM |
| Nc1nnc(-c2ccncc2)[nH]1 [Example 147] | > 30 µM |
| O=C(CCc1ccc(Cl)cc1)Nc1[nH]nc(-c2ccncc2)c1Br [Example 167] | < 5 µM |
| COc1cnccc1-c1nnc(NC(=O)CCc2ccc(Cl)cc2)[nH]1 [Example 32] | < 5 µM |
| CC1(c2c(-c3ccnnc3)n[nH]c2NC(=O)CCc2ccc(Cl)nc2)CC1 [Example 321] | < 5 µM |
| Cc1c(-c2ccncc2)nn(C)c1NC(=O)CCc1ccc(Cl)nc1 [Example 287] | < 5 µM |
| Cc1nn(C)c(C)c1OCC(=O)Nc1[nH]nc(-c2ccncc2)c1C [Example 240] | 5 to 15 µM |
| O=C(C[C@H]1CCOc2cc(Cl)ccc21)Nc1nnc(-c2ccncc2)[nH]1 [Example 208] | < 5 µM |
| Cc1ccccc1CCC(=O)Nc1nnc(-c2ccncc2)[nH]1 [Example 141] | < 5 µM |
| O=C(Nc1nnc(-c2ccncc2)[nH]1)N[C@@H]1CCOc2cc(Cl)ncc21 [Example 276] | 5 to 15 µM |
| O=C(NCc1ccc(Cl)nc1)Nc1cc(-c2ccncc2)n[nH]1 [Example 174] | < 5 µM |
| O=C(CCc1ccc(Cl)cc1)Nc1cc(-c2c(F)cncc2F)n[nH]1 [Example 300] | < 5 µM |
| O=C(CCc1ccccc1)Nc1nnc(-c2ccncc2)[nH]1 [Example 146] | < 5 µM |
| O=C(CN1CCCc2ccccc21)Nc1nnc(-c2ccncc2)[nH]1 [Example 76] | > 30 µM |
| Cc1c(-c2ccncc2)n[nH]c1NC(=O)[C@H](O)Cc1ccc(Cl)cc1 [Example 289] | < 5 µM |
| [2H]C([2H])(C(=O)Nc1cc(-c2ccnnc2)n[nH]1)C([2H])([2H])c1ccc(Cl)nc1 [Example 190] | < 5 µM |
| O=C(CCc1ccc(Cl)cc1)Nc1cc(-c2ccncc2)cnc1O [Example 51] | > 30 µM |
| Cc1c(-c2ccncc2F)n[nH]c1NC(=O)CCc1ccc(Cl)cc1 [Example 313] | < 5 µM |
| O=C(CCc1ccc(Cl)c(F)c1)Nc1nnc(-c2ccnnc2)[nH]1 [Example 13] | < 5 µM |
| CN(C(=O)CCc1ccc(Cl)nc1)c1cc(-c2ccncc2)n[nH]1 [Example 239] | < 5 µM |

| Compound | IC50 |
| --- | --- |
| Cc1c(-c2ccnnc2)n[nH]c1NC(=O)CCc1ccc(Cl)s1 [Example 152] | < 5 µM |
| Cc1c(-c2ccncc2)n[nH]c1NC(=O)CCc1ccc(F)cc1 [Example 221] | < 5 µM |
| CN(C)C(=O)Cc1c(-c2ccncc2)n[nH]c1NC(=O)CCc1ccc(Cl)cc1 [Example 301] | < 5 µM |
| O=C(CCc1ccc(Cl)nc1)Nc1cc(-c2ccnnc2)n[nH]1 [Example 19] | < 5 µM |
| Cn1cncc1-c1nnc(NC(=O)CCc2ccc(Cl)cc2)[nH]1 [Example 163] | < 5 µM |
| O=C(CCc1ccc(Cl)s1)Nc1nnc(-c2ccnnc2)[nH]1 [Example 12] | < 5 µM |
| Cn1cc(CCC(=O)Nc2nnc(-c3ccncc3)[nH]2)cn1 [Example 133] | > 30 µM |
| O=C(Nc1cc(-c2ccnnc2)n[nH]1)[C@H]1C[C@H](c2ccc(Cl)cc2)C1 [Example 197] | < 5 µM |
| CC(C)(C)c1ccc(CCC(=O)Nc2nnc(-c3ccncc3)[nH]2)cc1 [Example 78] | 5 to 15 µM |
| O=C(CCc1ccc(F)c(F)c1)Nc1nnc(-c2ccncc2)[nH]1 [Example 16] | < 5 µM |
| O=C(CCc1ccc(Cl)cc1)Nc1nc(-c2ccncc2)c[nH]1 [Example 20] | < 5 µM |
| CC1(c2c(-c3ccncc3)n[nH]c2NC(=O)CCc2ccc(Cl)cc2)CC1 [Example 303] | < 5 µM |
| Cc1c(-c2ccncc2)n[nH]c1NC(=O)CS(=O)(=O)c1ccc(Cl)cc1 [Example 293] | < 5 µM |
| O=C(CCc1ccc(Cl)cc1)Nc1cc(-c2ccncc2C2CC2)n[nH]1 [Example 298] | < 5 µM |
| CS(=O)(=O)c1ccc(CCC(=O)Nc2nnc(-c3ccncc3)[nH]2)cc1 [Example 126] | 15 to 30 µM |
| Cc1cccc(CCC(=O)Nc2nnc(-c3ccncc3)[nH]2)c1 [Example 140] | < 5 µM |
| Cc1c(-c2ccncc2)n[nH]c1NC(=O)c1ccc(-n2ccnn2)cc1 [Example 242] | 5 to 15 µM |
| O=C(CCc1cn2ccccc2n1)Nc1nnc(-c2ccncc2)[nH]1 [Example 123] | 15 to 30 µM |
| O=C(CCc1ccc(Cl)nc1)Nc1[nH]nc(-c2ccnnc2)c1C1CC1 [Example 272] | < 5 µM |
| O=C(C[C@H]1CCCc2ccccc21)Nc1nnc(-c2ccncc2)[nH]1 [Example 90] | < 5 µM |
| O=C(CCc1ncc(C(F)(F)F)cn1)Nc1nnc(-c2ccncc2)[nH]1 [Example 57] | 15 to 30 µM |
| O=C(CCc1ccc(Cl)cc1)Nc1nnc(-c2c(F)cncc2F)[nH]1 [Example 315] | 5 to 15 µM |

| Compound | IC50 |
| --- | --- |
| O=C(CC1CCOc2nc(Cl)ccc21)Nc1nnc(-c2ccncc2)[nH]1 (centres unmarked) [Example 179] | < 5 µM |
| N#Cc1c(-c2ccnnc2)n[nH]c1NC(=O)CCc1ccc(Cl)nc1 [Example 304] | < 5 µM |
| [2H]C([2H])([2H])c1c(-c2ccncc2)n[nH]c1NC(=O)C([2H])([2H])C([2H])([2H])c1ccc(Cl)nc1 [Example 150] | < 5 µM |
| Cc1c(-c2ccnnc2)n[nH]c1NC(=O)C[C@@H]1CCOc2cc(Cl)ccc21 [Example 279] | < 5 µM |
| O=C(CCc1ccc(C(F)(F)F)cc1)Nc1cc(-c2ccncc2)[nH]n1 [Example 62] | < 5 µM |
| O=C(CCc1ccc(Cl)nc1)Nc1[nH]nc(-c2ccncc2)c1F [Example 266] | < 5 µM |
| CN[C@@H](Cc1ccc(Cl)cc1)C(=O)Nc1cc(-c2ccncc2)n[nH]1 [Example 176] | < 5 µM |
| [2H]C([2H])(C(=O)Nc1nnc(-c2ccnnc2)[nH]1)C([2H])([2H])c1ccc(Cl)cc1 [Example 230] | < 5 µM |
| O=C(Nc1nnc(-c2ccncc2)[nH]1)N1CCc2nc(Cl)ccc2C1 [Example 166] | < 5 µM |
| Cc1c(-c2ccncc2)n[nH]c1NC(=O)CCc1ccc(F)c(F)c1 [Example 268] | < 5 µM |
| O=C(CCc1ccc(Cl)c(Cl)c1)Nc1nnc(-c2ccncc2)[nH]1 [Example 101] | < 5 µM |
| O=C(Nc1nnc(-c2ccncc2)[nH]1)C12CC(c3ccccc3)(C1)C2 [Example 66] | < 5 µM |
| Cc1c(-c2ccncc2F)n[nH]c1NC(=O)CCc1ccc(Cl)c(F)c1 [Example 320] | < 5 µM |
| O=C(C[C@H]1CCOc2ccccc21)Nc1nnc(-c2ccncc2)[nH]1 [Example 72] | < 5 µM |
| O=C(CCc1ccc(Cl)nc1)Nc1nc(-c2ccncc2)c[nH]1 [Example 1] | < 5 µM |
| O=C(CCc1ccc(Cl)cc1)Nc1cc(-c2ccncc2-c2ccccc2)n[nH]1 [Example 299] | < 5 µM |
| Cc1c(-c2ccncc2)n[nH]c1NC(=O)CCNC(=O)C1CC1C (centres unmarked) [Example 243] | 5 to 15 µM |
| O=C(CCc1c(F)c(F)c(F)c(F)c1F)Nc1nnc(-c2ccncc2)[nH]1 [Example 118] | < 5 µM |
| O=C(CC1CCNc2ccccc21)Nc1nnc(-c2ccncc2)[nH]1 (centres unmarked) [Example 63] | > 30 µM |
| O=C(C[C@@H]1CCOc2cc(Cl)ccc21)Nc1cc(-c2ccncc2)n[nH]1 [Example 213] | < 5 µM |
| O=C(CCc1ccc(C(F)(F)F)cn1)Nc1nnc(-c2ccncc2)[nH]1 [Example 85] | 5 to 15 µM |

Reference: US12331033B2, “Inhibitors of SARM1” (Disarm Therapeutics, Inc., priority 2020, dated 2025)
